Counter-ions that a name gives are not always drawn. Like-named read-outs stand apart in the source and are kept apart here.
What was measured:
[1] = Stability of enalapril and enalaprilat in spiked plasma under different storage conditions; type: physicochemical, human; conditions: for Stability: n = 6; for Stability test results: spiked plasma and stock solutions, room temperature for 20 hrs, freeze-thaw cycles, autosampler, accelerated stability
Description: (4) Stability. Stability validation was done in triplicate run for low, mid, and high QC samples and calculated from spiked calibration curve. […]

[2] = cited from earlier work
[3] = LC-MS/MS method; cited from earlier work
[4] = Bioequivalence study of two enalapril 20 mg tablet formulae, plasma levels by LC-MS/MS; type: in vivo, human; conditions: single oral dose 20 mg, 30 healthy male volunteers
Protocol: Protein precipitation were done for each sample by using acetonitrile. The mobile phase was prepared by mixing of 70% methanol and 30% of a mixture of 20 mM ammonium acetate and 0.2 mM formic acid, while the stationary phase was RP-C18 column (50 × 4.0 mm ID, 5 μm). The column was maintained at 40°C, while the autosampler temperature was 4°C. The flow rate was 1.0 ml/min. The plasma levels of the analytes were measured after a single dose of 20 mg enalapril tablets under fasting conditions.
In this study we applied a clinical study similar to that of [16] with modification. Thirty healthy adult male volunteers participated in this study after signing an informed consent. […]
After fasting period (12 hrs, overnight), each volunteer was given an oral dose containing 20 mg of enalapril either “A, reference” or “B, tested” formula with 200 mL of water in the sequence determined by randomization. […]
The pharmacokinetic parameters considered for assessment of the bioequivalence study between the reference drug and test drug were as follows: maximum plasma concentration (Cmax), area under plasma concentration/time plot until the last quantifiable value (AUC0–72), auxiliary parameters, time of the maximum plasma concentration (tmax), elimination half-life time (t-half), and area under plasma concentration/time plot extrapolated to infinity (AUC0–∞). […]

[5] = design: method as in doi:10.5012/bkcs.2004.25.6.878; conditions: after oral administration of enalapril, LC-MS method; cited from earlier work
[6] = single oral intake of 20 mg of enalapril, 24 healthy subjects, GC-MS method; cited from earlier work
[7] = design: method as in PMID 27437883; conditions: hospitalizing type 2 diabetes mellitus patients, overall and high-risk subgroups; cited from earlier work
[8] = Accelerated stability at −30.0°C for 30 days, QC 3 ng/ml, plasma
[9] = Accelerated stability at −30.0°C for 30 days, QC 100 ng/ml, plasma
[10] = Accelerated stability at −30.0°C for 30 days, QC 160 ng/ml, plasma
[11] = Autosampler stability 24 h at 4°C, QC 3 ng/ml
[12] = Autosampler stability 24 h at 4°C, QC 100 ng/ml
[13] = Autosampler stability 24 h at 4°C, QC 160 ng/ml
[14] = Freeze and thaw stability at −20°C (3 cycles), QC 3 ng/ml, plasma
[15] = Freeze and thaw stability at −20°C (3 cycles), QC 100 ng/ml, plasma
[16] = Room temperature stability for 10 h, QC 3 ng/ml, plasma
[17] = Room temperature stability for 10 h, QC 100 ng/ml, plasma
[18] = Room temperature stability for 10 h, QC 160 ng/ml, plasma

Stability [1, 8] [%] | Stability [1, 9] [%] | Stability [1, 10] [%] | Stability [1, 11] [%] | Stability [1, 12] [%] | Stability [1, 13] [%] | Stability [1, 14] [%] | Stability [1, 15] [%] | Stability [1, 16] [%] | Stability [1, 17] [%] | Stability [1, 18] [%] | Stability test results [1] | Compound | AUC0–t [3] [ng·h/mL] | AUC0–∞ [3] [ng·h/mL] | Cmax [3] [ng/mL] | T1/2 [3] [h] | tmax [3] [h] | further results
110.47 | 103.62 | 96.68 | 100.94 | 99.93 | 102.09 | 95.31 | 96.70 | 98.02 | 98.47 | 100.17 | greater than 85% | C[C@H](N[C@@H](CCc1ccccc1)C(=O)O)C(=O)N1CCC[C@H]1C(=O)O [enalaprilat] | 401 ± 89 | 420 ± 91 | 47.5 ± 12.4 | 6.71 ± 2.22 | 4.20 ± 1.06 | Stability ([1]; Freeze and thaw stability at −20°C (3 cycles), QC 160 ng/ml, plasma): 101.18%; Half-life [2]: 30 to 35 h; Time of maximum plasma concentration ([2]; enalaprilat after administration of enalapril): 3 to 4 h
97.81 | 96.59 | 85.10 | 95.83 | 98.34 | 95.40 | 96.45 | 98.54 | 99.57 | 101.64 | 103.66 | greater than 85% | CCOC(=O)[C@H](CCc1ccccc1)N[C@@H](C)C(=O)N1CCC[C@H]1C(=O)O [enalapril, (S)-1-(N-(1-(ethoxycarbonyl)-3-phenylpropyl)-L-alanyl)-Lproline (Z)-2-butenedioate salt] | 136 ± 36 | 138 ± 36 | 90.5 ± 28.4 | 1.35 ± 0.61 | 0.860 ± 0.310 | Tolerability in volunteers [4]: well tolerated; Bioavailability ([2]; absorbed from the gastrointestinal tract): 60–70%; Plasma level after 4 hrs ([2]; after 4 hrs): < 10 ng/mL; Effect of presence of food in the GI tract on absorption [2]: not affected; Terminal half-life [2]: about 2 h; Time to maximum plasma concentration ([2]; enalapril, after oral administration): ≤ 1 h; Maximum plasma concentration (Cmax), mean [5]: 102 ± 39 ng/mL; Time to maximum plasma concentration (tmax) [5]: 0.96 ± 0.36 h; Cmax, mean [6]: 72.9 ± 41.6 ng/mL; tmax [6]: 4.0 ± 1.4 h
– | – | – | – | – | – | – | – | – | – | – | – | N[C@@H](CC(=O)N1CCn2c(nnc2C(F)(F)F)C1)Cc1cc(F)c(F)cc1F [sitagliptin] | – | – | – | – | – | Effect on the risk for heart failure [7]: did not affect

Source: PMC5574226, “A Liquid Chromatography-Tandem Mass Spectrometry Method for Evaluation of Two Brands of Enalapril 20 mg Tablets in Healthy Human Volunteers” (Journal of Analytical Methods in Chemistry, 2017)
